Each structure is given as a SMILES string. ≈ marks a conversion by molar mass, not a printed value. Calls of active or inactive are those of the source.

From ChEMBL document CHEMBL5500355, “Quantum chemistry calculation-aided discovery of potent small-molecule mimics of glutathione peroxidases for the treatment of cisplatin-induced hearing loss” (Eur J Med Chem, 2024) come the findings set out here.

Data set [1] is described as follows: Glutathione peroxidase like activity of compound assessed as fold increase by measuring reduction in NADPH level at 100 uM by microplate reader assay relative to SPI-1005. The data set is classed as ADME.
Data set [2] in a line: Glutathione peroxidase like activity of compound assessed as fold increase by measuring reduction in NADPH level at 10 uM by microplate reader assay relative to SPI-1005. The data set is classed as ADME.
The species named for data set [3] is Mus musculus. Kind of data set: Inhibition of cisplatin induced hair loss in neonatal C57BL/6 mouse cochlear explants assessed as reduction in cochlear hair cells loss in apex turns pretreated with compound for 2 hrs followed by cisplatin addition and measured after 24 hrs post cisplatin treatment. The data set is classed as functional. As to conditions: Cochlea, time 26.0 hrs.

The species entered for data set [4] is Mus musculus. Briefly: Inhibition of cisplatin induced ferroptosis in neonatal C57BL/6 mouse cochlear explants assessed as reduction in mitochondrial iron accumulation at 100 uM by Mito-FerroGreen staining based confocal microscopy analysis. Particulars: Cochlea. The data set is classed as functional, organism-based.
In data set [5] the test system is Mus musculus. Kind of data set: Protection against cisplatin induced oxidative stress in C57BL/6 mouse assessed as increase in SOD level at 80 mg/kg, po administered daily for one week with simultaneous cisplatin addition on day 3 and 7 and measured after 1 week post last cisplatin treatment by ELISA. As to conditions: time 2.0 weeks. The data set is classed as functional, organism-based. (An ELISA detects its analyte on a solid surface through an enzyme-linked reagent.)

The species entered for data set [6] is Mus musculus. Kind of data set: Inhibition of cisplatin induced hair loss in neonatal C57BL/6 mouse cochlear explants assessed as reduction in cochlear hair cells loss in base turns pretreated with compound for 2 hrs followed by cisplatin addition and measured after 24 hrs post cisplatin treatment. The data set is classed as functional. As to conditions: Cochlea, time 26.0 hrs.

Data set [7] concerns Mus musculus. Briefly: Prevention of cisplatin induced hair loss in C57BL/6 mouse at 80 mg/kg, po administered daily for one week with simultaneous cisplatin addition on day 3 and 7 and measured after 1 week post last cisplatin treatment by myosin 7a-staining based assay. Particulars: time 2.0 weeks. The data set is classed as functional, organism-based.
Data set [8] relates to Mus musculus. Briefly: Prevention of cisplatin induced hearing loss in C57BL/6 mouse assessed as reduction in ABR threshold increase at 80 mg/kg, po administered daily for one week with simultaneous cisplatin addition on day 3 and 7 and measured after 1 week post last cisplatin treatment. The data set is classed as functional, organism-based. As to conditions: time 2.0 weeks.

Data set [9] has as its system Mus musculus. Briefly: Protection against cisplatin induced oxidative stress in C57BL/6 mouse assessed as reduction in TNF-alpha level at 80 mg/kg, po administered daily for one week with simultaneous cisplatin addition on day 3 and 7 and measured after 1 week post last cisplatin treatment by ELISA. The data set is classed as functional, organism-based. Particulars: time 2.0 weeks.

The test system of data set [10] is Mus musculus. Briefly: Protection against cisplatin induced oxidative stress in C57BL/6 mouse assessed as reduction in IL-6 level at 80 mg/kg, po administered daily for one week with simultaneous cisplatin addition on day 3 and 7 and measured after 1 week post last cisplatin treatment by ELISA. The data set is classed as functional, organism-based. Particulars: time 2.0 weeks.

The species entered for data set [11] is Mus musculus. Kind of data set: Inhibition of cisplatin induced hair loss in neonatal C57BL/6 mouse cochlear explants assessed as reduction in cochlear hair cells loss in middle turns pretreated with compound for 2 hrs followed by cisplatin addition and measured after 24 hrs post cisplatin treatment. As to conditions: Cochlea, time 26.0 hrs. The data set is classed as functional.

Data set [12] deals with Mus musculus. Briefly: Protection against cisplatin induced oxidative stress in C57BL/6 mouse assessed as reduction in MDA level at 80 mg/kg, po administered daily for one week with simultaneous cisplatin addition on day 3 and 7 and measured after 1 week post last cisplatin treatment by ELISA. The data set is classed as functional, organism-based. As to conditions: time 2.0 weeks.

The nature of data set [13]: Solubility of compound in water by liquid chromatography method. The data set is classed as physicochemical.
For data set [14], the species on record is Mus musculus. Briefly: Inhibition of cisplatin induced apoptosis in neonatal C57BL/6 mouse cochlear explants assessed as reduction in cleaved caspase 3 positive hair cells in basal turn of cochlea at 100 uM by parvalbumin staining based assay. The data set is classed as functional.
The species named for data set [15] is Mus musculus. Kind of data set: Inhibition of cisplatin induced oxidative stress in neonatal C57BL/6 mouse cochlear explants at 100 uM by MitoSOX Red staining based confocal fluorescence microscope analysis. Particulars: Cochlea. The data set is classed as functional, organism-based.
The subject of the next data set is Tu 686. Kind of data set: Effect on cisplatin induced antitumor activity in human Tu 686 cells by CCK8 assay. The data set is classed as functional, cell-based. Background: Formazan colour is commonly taken as a measure of viable cells.
The species named for data set [16] is Mus musculus. Briefly: Inhibition of cisplatin induced apoptosis in neonatal C57BL/6 mouse cochlear explants assessed as reduction in cleaved caspase 3 positive hair cells in apex turn of cochlea at 100 uM by parvalbumin staining based assay. The data set is classed as functional.
The subject of the next data set is 6-10B. Briefly: Effect on cisplatin induced antitumor activity in human 6-10B cells by CCK8 assay. The data set is classed as functional, cell-based.
For data set [17], the species on record is Mus musculus. Kind of data set: Inhibition of cisplatin induced apoptosis in neonatal C57BL/6 mouse cochlear explants assessed as reduction in cleaved caspase 3 positive hair cells in middle turn of cochlea at 100 uM by parvalbumin staining based assay. The data set is classed as functional.
The test system of another data set is HeLa. Briefly: Effect on cisplatin induced antitumor activity in human HeLa cells by CCK8 assay. The data set is classed as functional, cell-based.

As for `O=c1c2cccc(Br)c2[se]n1-c1ccncc1`, the “fold change (FC)” value amounted to 3.4 in [1] and 7.7 in data set [2].
Consider `COc1ccc2[se]n(-c3ccccc3)c(=O)c2c1`, for which the “fold change (FC)” value in [1] was 0.8; in data set [2], 0.5.
For the compound `O=c1c2ccccc2[se]n1-c1ccccc1`, the inhibition result in the data set filed under Mus musculus [3], in the data set listed under Mus musculus [4], in the data set filed under Mus musculus [6] and in the data set filed under Mus musculus [11] was “Active” in each case. Moreover, the outcome in the data set with Mus musculus [5], with Mus musculus [7], with Mus musculus [8], in the data set with Mus musculus [9], in the data set on Mus musculus [10] and with Mus musculus [12] was Active.
As for `O=c1c2cccc(Cl)c2[se]n1-c1ccccc1`, the “fold change (FC)” value in [1] came to 3.5; in [2], 8.6.
For `COc1ccccc1-n1[se]c2ccccc2c1=O`, in that order: 1.1 and 0.9.
Consider `O=c1c2cc(Br)ccc2[se]n1-c1ccccc1`, for which the “fold change (FC)” value in data set [1] came to 1.1; in [2], 0.5.
In the case of `O=c1c2cccc(Br)c2[se]n1-c1ccccc1`, the inhibition result in the data set listed under Mus musculus [3], in the data set filed under Mus musculus [6] and in the data set listed under Mus musculus [11] was “Active” throughout. The results for the “fold change (FC)” value in data set [1] and in [2] were 3.5 and 8.8, respectively.
`COc1cccc2c(=O)n(-c3ccccn3)[se]c12`: the “fold change (FC)” value in [1] is 3.8; in data set [2], 6.9.
For `COc1cccc2c(=O)n(-c3ccccc3)[se]c12`, the inhibition result in the data set listed under Mus musculus [3], in the data set filed under Mus musculus [6] and in the data set filed under Mus musculus [11] was “Active” throughout. Besides, the concentration in solution in data set [13] (solubility) was 2.5 µg/mL (≈ 8.22 µM). Moreover, the entries for the “fold change (FC)” value in data set [1] and in [2] were 4.2 and 7.4, respectively.
In the case of `COc1cccc(-n2[se]c3ccccc3c2=O)c1`, the “fold change (FC)” value was found to be 1 in data set [1] and 0.7 in [2].
For `O=c1c2cccc(F)c2[se]n1-c1ccccc1`, in that order: 2.5 and 4.5.
In the same order, the values of `O=c1c2cccc(Br)c2[se]n1-c1ccccn1` are 4.7 and 9.1.
In the same order, the values of `O=c1c2ccc(Br)cc2[se]n1-c1ccccc1` are 0.6 and 0.7.
Consider `COc1cccc2c(=O)n(-c3cccnc3)[se]c12`, for which the inhibition result in the data set listed under Mus musculus [3], in the data set filed under Mus musculus [4], in the data set filed under Mus musculus [14], in the data set filed under Mus musculus [15], in the data set filed under Mus musculus [6] and in the data set filed under Mus musculus [16] was “Active” in each case. Also, the inhibition entry in the data set filed under Mus musculus [17] and in the data set filed under Mus musculus [11] was “Active” in each case. For the same compound, the outcome in the data set on Mus musculus [5], in the data set with Mus musculus [7], in the data set on Mus musculus [8], in the data set on Mus musculus [9], with Mus musculus [10] and in the data set with Mus musculus [12] was Active. In addition, the solubility – broadly, the dissolved amount per volume that the medium holds – in data set [13] was found to be 1800 µg/mL (≈ 5900 µM). For the same compound, the result in the data set on Tu 686, with 6-10B and in the data set with HeLa was inactive. The “fold change (FC)” value in data set [1] is recorded as 3.5; in data set [2], 7.7.
Take `COc1ccc2c(=O)n(-c3ccccc3)[se]c2c1`: the results for the “fold change (FC)” value in data set [1] and in data set [2] were 0.5 and 0.2, respectively.
As for `O=c1c2cccc(Br)c2[se]n1-c1cccnc1`, the inhibition result in the data set filed under Mus musculus [3], in the data set listed under Mus musculus [6] and in the data set listed under Mus musculus [11] was “Active” each time. Also, the figures for the “fold change (FC)” value in data set [1] and in [2] were 3.5 and 9.8, respectively.
Turning to `COc1cccc2[se]n(-c3ccccc3)c(=O)c12`, the “fold change (FC)” value stood at 1.2 in data set [1] and 1.8 in data set [2].
In the same order, the values of `COc1ccc(-n2[se]c3ccccc3c2=O)cc1` are 1.1 and 1.3.
For `COc1cccc2c(=O)n(-c3ccncc3)[se]c12`, in that order: 3 and 7.4.
In the same order, the values of `O=c1c2cccc([N+](=O)[O-])c2[se]n1-c1ccccc1` are 3.3 and 7.2.
For the compound `Cc1cccc2c(=O)n(-c3ccccc3)[se]c12`, the “fold change (FC)” value in data set [1] was 2.5; in data set [2] it was 4.6.
